Assay results taken from patent US8633005B2, “Isocyclomaltooligosaccharide(s), isocyclomaltooligosaccharide-forming enzyme, their preparation and uses” (Hayashibara Co., Ltd., priority 2004, dated 2014).

Legend:
[1] = pH stability of ICM (ICG5 in buffers pH 2 to 10 heated at 100° C. for 24 hours); format: physicochemical; conditions: for Degree of coloring / Purity: 4% (w/v), 100° C. for 24 hours
Protocol: ICG5, prepared from soluble starch by the method in Experiment 11 and purified to give a purity of 100% by the method in Experiment 1, was used as material. An aqueous ICG5 solution with a concentration of 5% (w/v) was prepared by dissolving ICG5 in deionized water. Then, 8 ml each of the resulting solution was pored into a glass tube, sealed closely, and then heated at 120° C. for 30 to 90 min. After cooling the solution, the degree of coloring of the solution was measured. Further, the purity of ICG5 in the solution was measured by HPLC. The degree of coloring was defined as an absorbance at 480 nm using a 1 cm-cell.
ICG5, used in Experiment 15, was dissolved in various buffers to make into nine kinds of aqueous solutions containing 4% (w/v) of ICG5, adjusted to pH 2 to 10, as shown in Table 14. Eight milliliters of each solution was put in a glass tube, sealed and then heated at 100° C. for 24 hours. After cooling the solution, the degree of coloring and the purity of ICG5 of each solution were measured in the same manner in Experiment 15.

Source text for pancreas α-amylase: 43, 23-29 (1990), the digestibility of ICM by salivary α-amylase, artificial gastric juice, pancreas amylase, and small intestinal enzymes were investigated using ICG5, used in Experiment 15. […] In Table 18, the digestion (%) means a value calculated by the formula: Digestion (%)=(The amount of reducing saccharides/The amount of the total saccharides)×100 , in respective reaction described above.

Compound: OCC1OC2OC3C(CO)OC(OC4C(CO)OC(OC5C(CO)OC(OCC6OC(OC1C(O)C2O)C(O)C(O)C6O)C(O)C5O)C(O)C4O)C(O)C3O [ICG5, cyclo{→6)-α-D-glucopyranosyl-(1→4)-α-D-glucopyranosyl-(1→4)-α-D-glucopyranosyl-(1→4)-.α-D-glucopyranosyl-(1→4)α-D-glucopyranosyl-(1→}]
- Hydrolysis ([1]; pH 2, 100° C. for 24 hours): completely hydrolyzed
- Degree of coloring ([1]; pH 2.0, Acetate buffer): 0.00 A480 nm
- Purity ([1]; pH 2.0, Acetate buffer): 0%
- Hydrolysis ([1]; pH 3, 100° C. for 24 hours): ≥ 50
- Degree of coloring ([1]; pH 3.0, Acetate buffer): 0.00 A480 nm
- Purity ([1]; pH 3.0, Acetate buffer): 34.9%
- Hydrolysis ([1]; pH 4, 100° C. for 24 hours): slightly hydrolyzed
- Degree of coloring ([1]; pH 4.0, Acetate buffer): 0.00 A480 nm
- Purity ([1]; pH 4.0, Acetate buffer): 89.9%
- Degree of coloring ([1]; pH 5.0, Acetate buffer): 0.00 A480 nm
- Purity ([1]; pH 5.0, Acetate buffer): 99.4%
- Degree of coloring ([1]; pH 6.0, Acetate buffer): 0.00 A480 nm
- Purity ([1]; pH 6.0, Acetate buffer): 100%
- Degree of coloring ([1]; pH 7.0, Borate buffer): 0.00 A480 nm
- Purity ([1]; pH 7.0, Borate buffer): 100%
- Degree of coloring ([1]; pH 8.0, Ammonium buffer): 0.00 A480 nm
- Purity ([1]; pH 8.0, Ammonium buffer): 100%
- Degree of coloring ([1]; pH 9.0, Ammonium buffer): 0.01 A480 nm
- Purity ([1]; pH 9.0, Ammonium buffer): 100%
- Degree of coloring ([1]; pH 10.0, Ammonium buffer): 0.01 A480 nm
- Purity ([1]; pH 10.0, Ammonium buffer): 99.6%
- Hydrolysis ([1]; pH range of 5 to 10, 100° C. for 24 hours): substantially not hydrolyzed
- Digestion (pancreas α-amylase): 0%
